The numbers were not newly measured in patent publication US20190298722A1, “USE OF AN INHIBITOR OF THE DE NOVO SYNTHESIS OF PURINES, IN THE TREATMENT OF ADENYLOSUCCINATE LYASE DEFICIENCY” (ASSISTANCE PUBLIQUE-HOPITAUX DE PARIS, priority 2016, published 2019), which cites them from elsewhere.

The test system of one data set is ADSL deficiency patients. As to conditions: child; not confirmed by other studies (Jurecka et al. 2015); cited from earlier work.
In a further data set the test system is brains of rats. As to conditions: infusion into the brains of rats; cited from earlier work.
The test system of the next data set is ADSL deficiency patient. As to conditions: one patient, after 9 months of treatment; cited from earlier work.

`O=C[C@H](O)[C@H](O)[C@H](O)CO` [D-ribose]: the “motor coordination and seizure control” value in the data set on ADSL deficiency patients was “improvement”.

With `Nc1c(C(=O)N[C@@H](CC(=O)O)C(=O)O)ncn1[C@@H]1O[C@H](CO)[C@@H](O)[C@H]1O` [SAICAr, succinylaminoimidazole carboxamide riboside], in the data set on brains of rats, the neuronal damage result is “significant neuronal damage”.

`C[S+](CC[C@H](N)C(=O)[O-])C[C@H]1O[C@@H](n2cnc3c(N)ncnc32)[C@H](O)[C@@H]1O` (stereo partly shown) [SAMe, S-adenosyl-1-methionine]: the “clinical and biological parameters” value with ADSL deficiency patient is recorded as “no improvement”.

As for `O=c1ccn([C@@H]2O[C@H](CO)[C@@H](O)[C@H]2O)c(=O)[nH]1` [uridine], the “motor coordination and seizure control” value in the data set on ADSL deficiency patients is reported as “improvement”.
